Assay results: doi:10.1101/2025.07.05.663305v1, “Structure of Photosystem I with SOD reveals coupling between energy conversion and oxidative stress protection” (biorxiv, 2025)

Target: T1, FCPb (Chromera velia, UniProt A0A0G4ID45)
T1 construct: gene Cvel_13255; native PSI-SOD-FCPI supercomplex purified from cells; contacts PsaD, PsaL, PsaA2 and SOD1
T1 sequence (A0A0G4ID45 1-293): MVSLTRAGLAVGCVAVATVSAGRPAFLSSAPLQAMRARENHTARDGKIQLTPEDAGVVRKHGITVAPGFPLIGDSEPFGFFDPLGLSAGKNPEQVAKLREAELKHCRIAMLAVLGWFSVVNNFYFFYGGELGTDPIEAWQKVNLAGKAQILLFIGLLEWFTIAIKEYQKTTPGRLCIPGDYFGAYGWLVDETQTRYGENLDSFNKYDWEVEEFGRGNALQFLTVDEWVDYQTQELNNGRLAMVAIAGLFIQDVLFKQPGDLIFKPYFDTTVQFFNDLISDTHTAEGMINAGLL
Test: cryo-EM structure
Format: binding
Conditions: four sites 301, 302, 303, 305

**Q.** `CC(/C=C/C=C(C)/C=C/[C@@]12O[C@]1(C)C[C@@H](O)CC2(C)C)=C\C=C\C=C(C)\C=C\C=C(C)\C=C\[C@@]12O[C@]1(C)C[C@@H](O)CC2(C)C` [violaxanthin] was tested. Which cryo-EM structure did it give?
**A.** FCPb binds ten Chls a and four violaxanthins
